Results taken from patent US20160221974A1, “SODIUM CHANNEL MODULATORS FOR THE TREATMENT OF PAIN AND DIABETES” (CHROMOCELL CORPORATION, priority 2013, published 2016).

Experiments:
hNaV1.7 = target: T1, hNaV1.7 (Homo sapiens, UniProt Q15858); assay: FDSS Membrane Potential In-Vitro Assay; type: cell-based; settings: stimulation with veratridine and scorpion venom, read-out: NaV1.7 IC50
T1 construct: expressed in transfected cells

NaV1.7 = target: T2, NaV1.7 (Homo sapiens, UniProt Q15858); assay: Patchliner Electrophysiological In-Vitro Assay (NaV1.7); type: cell-based; settings: Patchliner patch clamp, HEK293, holding at V1/2
T2 construct: expressed in transfected cells
T2 sequence (Q15858 whole entry): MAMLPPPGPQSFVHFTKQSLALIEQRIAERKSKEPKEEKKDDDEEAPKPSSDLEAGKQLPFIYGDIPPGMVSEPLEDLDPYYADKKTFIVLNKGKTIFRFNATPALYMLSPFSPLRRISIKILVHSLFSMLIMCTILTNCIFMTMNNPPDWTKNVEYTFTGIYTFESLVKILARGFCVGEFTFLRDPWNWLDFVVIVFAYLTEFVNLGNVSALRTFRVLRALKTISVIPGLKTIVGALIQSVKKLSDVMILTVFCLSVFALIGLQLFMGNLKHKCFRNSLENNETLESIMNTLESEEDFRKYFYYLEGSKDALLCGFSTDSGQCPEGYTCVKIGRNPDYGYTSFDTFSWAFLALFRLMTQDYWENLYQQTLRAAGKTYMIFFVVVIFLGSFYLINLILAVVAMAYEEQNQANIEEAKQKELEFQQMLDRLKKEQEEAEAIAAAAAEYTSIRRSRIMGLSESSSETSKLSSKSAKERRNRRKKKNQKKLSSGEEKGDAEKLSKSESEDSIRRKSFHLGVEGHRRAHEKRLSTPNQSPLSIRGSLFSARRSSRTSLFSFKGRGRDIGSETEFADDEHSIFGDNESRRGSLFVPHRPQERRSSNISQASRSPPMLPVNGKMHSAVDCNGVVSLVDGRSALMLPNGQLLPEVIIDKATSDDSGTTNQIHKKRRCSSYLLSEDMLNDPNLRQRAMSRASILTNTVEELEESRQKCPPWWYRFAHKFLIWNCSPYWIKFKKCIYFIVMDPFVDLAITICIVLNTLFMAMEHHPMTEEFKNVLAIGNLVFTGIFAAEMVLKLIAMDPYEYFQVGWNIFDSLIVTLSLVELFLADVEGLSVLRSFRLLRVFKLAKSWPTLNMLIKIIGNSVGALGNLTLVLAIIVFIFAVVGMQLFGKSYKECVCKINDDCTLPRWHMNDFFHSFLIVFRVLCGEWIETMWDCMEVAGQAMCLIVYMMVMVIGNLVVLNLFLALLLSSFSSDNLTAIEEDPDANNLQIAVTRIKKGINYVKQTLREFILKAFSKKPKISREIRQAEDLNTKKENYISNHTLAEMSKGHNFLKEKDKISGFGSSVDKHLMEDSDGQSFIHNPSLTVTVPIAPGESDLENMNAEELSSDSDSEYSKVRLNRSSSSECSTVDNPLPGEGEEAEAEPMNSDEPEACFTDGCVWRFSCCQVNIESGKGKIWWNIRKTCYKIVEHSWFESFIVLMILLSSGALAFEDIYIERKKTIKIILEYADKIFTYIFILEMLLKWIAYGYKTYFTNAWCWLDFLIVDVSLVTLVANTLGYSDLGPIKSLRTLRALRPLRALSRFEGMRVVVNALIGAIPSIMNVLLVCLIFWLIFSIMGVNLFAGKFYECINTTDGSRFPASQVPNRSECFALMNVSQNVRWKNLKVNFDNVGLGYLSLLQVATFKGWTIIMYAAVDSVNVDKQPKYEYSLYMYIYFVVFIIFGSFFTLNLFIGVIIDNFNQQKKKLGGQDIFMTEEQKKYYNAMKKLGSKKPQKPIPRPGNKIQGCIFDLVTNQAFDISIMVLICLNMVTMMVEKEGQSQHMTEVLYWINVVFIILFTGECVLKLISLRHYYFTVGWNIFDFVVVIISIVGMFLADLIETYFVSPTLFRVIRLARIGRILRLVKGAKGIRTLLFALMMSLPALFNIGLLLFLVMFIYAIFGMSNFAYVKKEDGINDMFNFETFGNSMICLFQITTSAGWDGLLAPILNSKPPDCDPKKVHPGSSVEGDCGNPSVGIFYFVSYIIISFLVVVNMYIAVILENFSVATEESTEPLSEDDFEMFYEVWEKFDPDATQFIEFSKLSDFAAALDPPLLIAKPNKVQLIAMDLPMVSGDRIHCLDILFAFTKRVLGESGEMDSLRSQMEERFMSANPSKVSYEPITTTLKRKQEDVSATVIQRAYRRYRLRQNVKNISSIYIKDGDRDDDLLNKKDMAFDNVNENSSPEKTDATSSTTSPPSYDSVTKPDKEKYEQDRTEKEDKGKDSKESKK
T2 sequence (Q07699 19-218 partner): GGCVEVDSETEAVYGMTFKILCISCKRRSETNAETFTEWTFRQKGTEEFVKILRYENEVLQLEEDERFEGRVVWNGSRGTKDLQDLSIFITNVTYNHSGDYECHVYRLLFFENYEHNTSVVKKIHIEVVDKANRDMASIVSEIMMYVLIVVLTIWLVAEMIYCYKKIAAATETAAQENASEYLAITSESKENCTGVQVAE
T2 sequence (O60939 30-215 partner): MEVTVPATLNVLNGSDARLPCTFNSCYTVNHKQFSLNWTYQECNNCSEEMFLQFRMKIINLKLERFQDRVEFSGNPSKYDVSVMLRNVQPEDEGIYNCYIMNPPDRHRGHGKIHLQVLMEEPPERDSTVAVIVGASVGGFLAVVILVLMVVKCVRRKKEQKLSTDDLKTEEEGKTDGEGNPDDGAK
Method: In vitro assays were performed in recombinant cell line that stably express a heterotrimeric protein of interest from an introduced nucleic acid encoding the alpha subunit (hNav1.7, SCN9A), the beta subunit (SCNB1) and the beta subunit (SCNB2). The cell line was engineered using Human Embryonic Kidney 293 cells as host background. Additional cell lines stably expressing recombinant Nav1.7 or Nav1.5 alpha subunit alone or in combination with various beta subunits can also be used in in-vitro assays.
The recording of sodium current from stable HEK293 cell lines expressing NaV1.7 or NaV1.5 was done on a Patchliner® instrument, Nanion Technologies. The Patchliner® is a fully automated bench-top patch clamp platform and can record simultaneously from up to eight single cells with GΩ seals.
For patch-clamp experiments, cells were grown under standard culturing conditions in Dulbecco's Modified Eagles medium supplemented with 10% fetal bovine serum, glutamine and HEPES. Cells were harvested and kept in suspension for up to 4 hours with no significant change in quality or ability to patch. Whole cell patch clamp recordings were conducted according to Nanion's standard procedure for the Patchliner®. Experiments were conducted at room temperature.
Voltage protocols were designed to establish: 1) peak current amplitude (Imax), 2) test potential (Vmax) and 3) half-inactivation potential (V1/2) for each of the eight individual cells. To determine V1/2, a standard steady-state inactivation protocol was executed using a series of fifteen 500 ms depolarizing pre-pulses in 10 mV increments (starting at −130 mV) and immediately followed by a 10 ms test pulse to Vmax. To estimate test compound affinity to the inactivated state of sodium channel (Ki), the holding potential for each cell was set automatically to the V1/2 calculated from a steady-state inactivation data. The current was activated with the following voltage protocol: holding at V1/2 for 2-5 seconds, return to the −120 mV for 5-10 ms to relieve fast inactivation, stepping to test potential (Vmax) for 10-20 ms. This voltage protocol was repeated every 10 seconds to establish the baseline with 2-3 buffer additions followed by the test compound addition. The dose-dependent inhibition was analyzed using Nanion's Data Analysis Package.

CYP3A4 = target: T3, CYP3A4 (Homo sapiens, UniProt P08684); assay: In-Vitro Cytochrome P450 (CYP450) Inhibition Assay (Vivid CYP450); type: in vitro ADME; settings: CYP3A4 enzyme complex (Vivid CYP450, Invitrogen), 6 μM test concentration
T3 construct: purchased Invitrogen
T3 sequence (P08684 2-503 limits assumed): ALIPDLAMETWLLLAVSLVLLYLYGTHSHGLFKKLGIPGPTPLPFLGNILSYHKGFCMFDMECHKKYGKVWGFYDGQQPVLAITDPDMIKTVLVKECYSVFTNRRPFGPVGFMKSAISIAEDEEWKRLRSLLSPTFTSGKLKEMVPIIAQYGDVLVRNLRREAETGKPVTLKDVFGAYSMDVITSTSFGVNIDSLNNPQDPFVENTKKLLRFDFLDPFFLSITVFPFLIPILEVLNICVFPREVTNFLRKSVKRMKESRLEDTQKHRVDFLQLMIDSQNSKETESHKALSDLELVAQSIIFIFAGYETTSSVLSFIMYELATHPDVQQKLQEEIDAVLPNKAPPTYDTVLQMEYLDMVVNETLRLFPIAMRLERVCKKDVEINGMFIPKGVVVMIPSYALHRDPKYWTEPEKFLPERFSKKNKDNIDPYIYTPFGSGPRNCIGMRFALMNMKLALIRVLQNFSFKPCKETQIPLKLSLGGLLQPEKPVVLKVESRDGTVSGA
Method: We evaluated interaction of drug candidates with cytochrome P450 enzymes which are a major determinant of drug clearance via oxidative metabolism using a high throughput compatible, fluorescence based CYP450 screening assay (Vivid® CYP450, Invitrogen) according to manufacturer's directions.
In brief, test compounds at four different concentrations (μM—6.0, 2.0, 0.7, 0.2), a positive control (Ketoconazole) and a solvent control were incubated at room temperature in unique wells of a 96-well microtiter plate with CYP3A4 enzyme complex for 20 minutes. A pre-read fluorescence (Ex−485 nm/Em−530 nm) was measured at the start of the incubation using a Tecan Safire^2 microplate reader-monochromator to determine background fluorescence. At the end of the incubation period, enzyme substrate and co-enzyme were added and the reaction was kinetically monitored for 1 hour by measuring fluorescence every minute. Effect of test compounds on inhibition of CYP3A4 metabolism of provided substrate was determined by calculating the ratio of the effective reaction rate in presence of test compound to that in the absence of inhibitor.

T1 sequence (Q15858 whole entry): as the sequence (Q15858 whole entry) above
T1 sequence (Q07699 19-218 partner): as the sequence (Q07699 19-218 partner) above
T1 sequence (O60939 30-215 partner): as the sequence (O60939 30-215 partner) above

Structure (SMILES) | IC50 (hNaV1.7) [µM] | IC50 (NaV1.7) [µM] | inhibition at 1 hour, 6 µM (CYP3A4) [%]
CC(NC(=O)c1cc(-c2cc(Cl)ccc2Oc2cc(F)c(S(=O)(=O)Nc3ncns3)cc2Cl)ccn1)C(=O)O (racemic) [Compound 5, 2-(4-(2-(4-(N-(1,2,4-thiadiazol-5-yl)sulfamoyl)-2-chloro-5-fluorophenoxy)-5-chlorophenyl)picolinamido)propanoic acid] | 0.13 to 1 | < 0.1 | 25 to 50
O=C(O)CCCCNC(=O)c1cc(-c2cc(Cl)ccc2Oc2cc(F)c(S(=O)(=O)Nc3ncns3)cc2Cl)ccn1 [Compound 3, 5-(4-(2-(4-(N-(1,2,4-thiadiazol-5-yl)sulfamoyl)-2-chloro-5-fluorophenoxy)-5-chlorophenyl)picolinamido)pentanoic acid] | < 0.13 |  | 50 to 100
O=C(O)CCCNC(=O)c1cc(-c2cc(Cl)ccc2Oc2cc(F)c(S(=O)(=O)Nc3ncns3)cc2Cl)ccn1 [Compound 4, 4-(4-(2-(4-(N-(1,2,4-thiadiazol-5-yl)sulfamoyl)-2-chloro-5-fluorophenoxy)-5-chlorophenyl)picolinamido)butanoic acid] | 0.13 to 1 |  | 50 to 100
N#Cc1cc(S(=O)(=O)Nc2ncns2)ccc1Oc1ccc(Cl)cc1-c1ccnc(C(=O)NCCC(=O)O)c1 [Compound 9, 3-(4-(2-(4-(N-(1,2,4-thiadiazol-5-yl)sulfamoyl)-2-cyanophenoxy)-5-chlorophenyl)picolinamido)propanoic acid] | 0.13 to 1 |  | 0 to 25
O=C(O)CCNC(=O)c1cc(-c2cc(Cl)ccc2Oc2cc(F)c(S(=O)(=O)Nc3ncns3)cc2F)ccn1 [Compound 10, 3-(4-(2-(4-(N-(1,2,4-thiadiazol-5-yl)sulfamoyl)-2,5-difluorophenoxy)-5-chlorophenyl)picolinamido)propanoic acid] | 0.13 to 1 |  | 25 to 50
O=C(O)CNCCCc1cc(Cl)ccc1Oc1cc(F)c(S(=O)(=O)Nc2cscn2)cc1Cl [Compound 11, 2-((3-(5-chloro-2-(2-chloro-5-fluoro-4-(N-(thiazol-4-yl)sulfamoyl)phenoxy)phenyl)propyl)amino)acetic acid] |  | < 0.1 | 0 to 25
NC(=O)CCNCCCc1cc(Cl)ccc1Oc1cc(F)c(S(=O)(=O)Nc2cscn2)cc1Cl [Compound 26, 3-((3-(5-chloro-2-(2-chloro-5-fluoro-4-(N-(thiazol-4-yl)sulfamoyl)phenoxy)phenyl)propyl)amino)propanamide] | < 0.13 | < 0.1 | 
O=C(O)CC1CCN(CCCc2cc(Cl)ccc2Oc2cc(F)c(S(=O)(=O)Nc3ncns3)cc2Cl)CC1 [Compound 28, 2-(1-(3-(2-(4-(N-(1,2,4-thiadiazol-5-yl)sulfamoyl)-2-chloro-5-fluorophenoxy)-5-chlorophenyl)propyl)piperidin-4-yl)acetic acid] | 0.13 to 1 | < 0.1 | 
CCOC(=O)N(CCCc1cc(Cl)ccc1Oc1cc(F)c(S(=O)(=O)Nc2nccs2)cc1Cl)CC(=O)O [Compound 34, 2-((3-(5-chloro-2-(2-chloro-5-fluoro-4-(N-(thiazol-2-yl)sulfamoyl)phenoxy)phenyl)propyl)(ethoxycarbonyl)amino)acetic acid] | 0.5 to 1 | 0.1 to 0.5 | 
CN(CCCc1cc(Cl)ccc1Oc1cc(F)c(S(=O)(=O)Nc2cscn2)cc1Cl)CC(=O)O [Compound 47, 2-((3-(5-chloro-2-(2-chloro-5-fluoro-4-(N-(thiazol-4-yl)sulfamoyl)phenoxy)phenyl)propyl)(methyl)amino)acetic acid] | 1 to 20 | 1 to 10 | 
COC(=O)CN(C)CCCc1cc(Cl)ccc1Oc1cc(F)c(S(=O)(=O)Nc2cscn2)cc1Cl [Compound 52, methyl 2-((3-(5-chloro-2-(2-chloro-5-fluoro-4-(N-(thiazol-4-yl)sulfamoyl)phenoxy)phenyl)propyl)(methyl)amino)acetate] | 1 to 20 | 0.1 to 0.5 | 
